Structures can show the parent of a compound that is named as a salt. Where two headings read alike, the source gives them in different places.
Experiments:
[1] = system: IL-8 production in influenza virus-infected U937 cells (H1N1); assay: cells; assay type: cell-based, Human; conditions: for IC50: U-937
[2] = system: IP-10 production in influenza virus-infected U937 cells (H1N1); assay: cells; assay type: cell-based
[3] = system: MCP-1 production in influenza virus-infected U937 cells (H1N1); assay: cells; assay type: cell-based; conditions: for IC50: U-937, read-out: IC50 MCP-1
in vitro = conditions: human
JAK2 = molecular target: T1, JAK2 (Homo sapiens, UniProt O60674); assay: Cell-free kinase activity assay, JAK2; assay type: biochemical
T1 construct: purchased KinaseProfiler (Eurofin, Brussels, Belgium)
T1 sequence (O60674 whole entry): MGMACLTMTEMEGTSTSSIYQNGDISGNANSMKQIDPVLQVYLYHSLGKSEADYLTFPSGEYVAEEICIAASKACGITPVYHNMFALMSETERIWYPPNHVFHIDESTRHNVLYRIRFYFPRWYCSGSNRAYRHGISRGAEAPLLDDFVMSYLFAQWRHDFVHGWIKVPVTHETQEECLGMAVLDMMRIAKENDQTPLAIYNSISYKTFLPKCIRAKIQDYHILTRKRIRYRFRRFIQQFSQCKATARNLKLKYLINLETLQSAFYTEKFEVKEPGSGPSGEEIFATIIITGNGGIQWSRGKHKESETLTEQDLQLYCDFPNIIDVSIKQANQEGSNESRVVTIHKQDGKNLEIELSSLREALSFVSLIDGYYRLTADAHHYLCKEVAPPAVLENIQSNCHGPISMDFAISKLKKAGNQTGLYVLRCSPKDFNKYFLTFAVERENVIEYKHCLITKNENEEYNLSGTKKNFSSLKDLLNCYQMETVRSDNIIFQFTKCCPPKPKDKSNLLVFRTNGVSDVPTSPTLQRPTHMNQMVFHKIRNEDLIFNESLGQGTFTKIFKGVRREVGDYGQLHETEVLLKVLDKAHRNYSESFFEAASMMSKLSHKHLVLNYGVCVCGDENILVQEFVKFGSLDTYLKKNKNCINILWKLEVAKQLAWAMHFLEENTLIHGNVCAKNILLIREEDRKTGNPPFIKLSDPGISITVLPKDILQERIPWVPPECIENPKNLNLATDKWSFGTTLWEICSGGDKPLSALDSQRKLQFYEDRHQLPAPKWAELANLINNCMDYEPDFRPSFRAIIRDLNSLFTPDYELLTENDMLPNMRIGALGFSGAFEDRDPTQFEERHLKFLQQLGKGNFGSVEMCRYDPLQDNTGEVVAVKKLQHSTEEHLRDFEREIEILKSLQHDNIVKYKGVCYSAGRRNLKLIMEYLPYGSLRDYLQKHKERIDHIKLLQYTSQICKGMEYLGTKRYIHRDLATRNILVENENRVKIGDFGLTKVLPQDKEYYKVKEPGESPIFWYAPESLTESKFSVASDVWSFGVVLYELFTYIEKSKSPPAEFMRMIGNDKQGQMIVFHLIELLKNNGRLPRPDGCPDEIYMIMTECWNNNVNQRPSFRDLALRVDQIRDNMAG

JAK1 = JAK1 (Homo sapiens, UniProt P23458); assay: Cell-free kinase activity assay, JAK1
JAK1, sequence (P23458 whole entry): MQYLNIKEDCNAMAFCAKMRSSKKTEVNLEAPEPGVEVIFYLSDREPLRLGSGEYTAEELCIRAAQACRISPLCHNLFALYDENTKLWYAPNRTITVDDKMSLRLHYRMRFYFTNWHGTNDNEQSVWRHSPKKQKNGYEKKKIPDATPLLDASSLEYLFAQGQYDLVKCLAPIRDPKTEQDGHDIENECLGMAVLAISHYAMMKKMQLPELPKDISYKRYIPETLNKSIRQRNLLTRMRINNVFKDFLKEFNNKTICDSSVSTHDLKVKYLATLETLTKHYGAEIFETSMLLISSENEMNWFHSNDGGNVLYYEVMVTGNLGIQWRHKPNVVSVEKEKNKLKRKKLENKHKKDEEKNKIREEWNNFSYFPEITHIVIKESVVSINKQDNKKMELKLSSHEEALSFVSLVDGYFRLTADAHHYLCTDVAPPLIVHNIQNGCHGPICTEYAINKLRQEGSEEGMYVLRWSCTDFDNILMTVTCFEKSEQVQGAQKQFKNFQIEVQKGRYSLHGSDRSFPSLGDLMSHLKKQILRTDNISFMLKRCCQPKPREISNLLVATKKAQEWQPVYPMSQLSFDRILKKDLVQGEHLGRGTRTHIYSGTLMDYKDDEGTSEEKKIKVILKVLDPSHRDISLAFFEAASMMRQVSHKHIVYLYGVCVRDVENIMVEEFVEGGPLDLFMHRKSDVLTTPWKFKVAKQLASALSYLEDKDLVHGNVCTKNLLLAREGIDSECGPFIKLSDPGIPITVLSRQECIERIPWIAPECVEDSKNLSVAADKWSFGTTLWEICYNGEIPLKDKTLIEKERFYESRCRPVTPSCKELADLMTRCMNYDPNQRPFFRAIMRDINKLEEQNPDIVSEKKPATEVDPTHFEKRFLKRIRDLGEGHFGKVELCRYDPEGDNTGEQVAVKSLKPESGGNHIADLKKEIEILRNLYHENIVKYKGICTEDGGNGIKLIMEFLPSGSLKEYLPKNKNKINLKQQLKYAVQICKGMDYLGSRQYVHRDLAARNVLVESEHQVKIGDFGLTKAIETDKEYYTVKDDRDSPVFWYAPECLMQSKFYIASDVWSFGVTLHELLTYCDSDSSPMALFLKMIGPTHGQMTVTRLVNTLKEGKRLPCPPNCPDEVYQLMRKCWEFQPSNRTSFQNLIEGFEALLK

p38 = p38 (Homo sapiens, UniProt Q16539); assay: Cell-free kinase activity assay, p38; assay type: biochemical; conditions: p38 kinases in vitro
p38, sequence (Q16539 whole entry): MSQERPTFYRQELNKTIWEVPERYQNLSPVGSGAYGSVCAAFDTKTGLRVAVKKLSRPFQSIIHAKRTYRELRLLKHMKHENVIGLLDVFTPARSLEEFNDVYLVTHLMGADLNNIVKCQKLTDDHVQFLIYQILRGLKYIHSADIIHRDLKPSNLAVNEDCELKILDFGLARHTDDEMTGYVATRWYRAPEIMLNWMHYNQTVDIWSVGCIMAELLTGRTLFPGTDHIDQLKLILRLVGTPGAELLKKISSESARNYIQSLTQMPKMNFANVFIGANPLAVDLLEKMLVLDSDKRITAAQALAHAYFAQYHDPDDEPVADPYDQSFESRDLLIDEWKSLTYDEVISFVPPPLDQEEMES

[4] = secondary screen, Supplemental Table 1, read-out: EC50 IL-8
[5] = secondary screen, Supplemental Table 1, read-out: EC50 IP-10
[6] = secondary screen, Supplemental Table 1, read-out: EC50 MCP-1
[7] = secondary screen, Supplemental Table 1
[8] = Homo sapiens, U-937, secondary screen, Supplemental Table 1, read-out: EC50 IL-8
[9] = CC50, secondary screen, Supplemental Table 1
[10] = Homo sapiens, U-937, read-out: EC50 IP-10
[11] = Homo sapiens, U-937, read-out: EC50 MCP-1
[12] = Homo sapiens, U-937, secondary screen, Supplemental Table 1, read-out: EC50 IP-10
[13] = Homo sapiens, U-937, secondary screen, Supplemental Table 1, read-out: EC50 MCP-1
[14] = Homo sapiens, U-937, read-out: EC50 IL-8

Cc1ccc(NC(=O)c2cccc(C(C)(C)C#N)c2)cc1Nc1ccc2ncn(C)c(=O)c2c1 [AZ 628]
EC50 [1, 4]: 100 nM
EC50 [2, 5]: 970 nM
EC50 [3, 6]: 180 nM
CC50 (U937 cells; [7]): > 100000 nM

Cc1cc(Nc2nc(N[C@@H](C)c3ccc(F)cc3)c(C#N)cc2F)n[nH]1 [AZ 960]
EC50 [1, 8]: < 5 nM
CC50 (in vitro; [9]): 6000 nM
EC50 [2, 10]: 10 nM
EC50 [3, 11]: < 5 nM

Cc1ccc(-n2nc(C(C)(C)C)cc2NC(=O)Nc2ccc(OCCN3CCOCC3)c3ccccc23)cc1 [BIRB 796, Doramapimod]
IC50 ([1]; Homo sapiens): 5200 nM
EC50 [1, 8]: 5220 nM
CC50 (in vitro): > 100000 nM
EC50 [2, 10]: 9200 nM
EC50 [3, 11]: 10000 nM
IC50 ([3]; Homo sapiens): 10000 nM

O=C(Nc1cccc(Nc2ncc(Br)c(NCCc3cnc[nH]3)n2)c1)N1CCCC1 [BX-912]
EC50 [1, 4]: 410 nM
EC50 [2, 5]: 1050 nM
EC50 [3, 6]: 360 nM
CC50 (U937 cells; [7]): > 100000 nM

Cc1ccc(NC(=O)c2ccc(CN3CC[C@H](N(C)C)C3)c(C(F)(F)F)c2)cc1Nc1nccc(-c2cncnc2)n1 [Bafetinib (INNO-406), Bafetinib]
EC50 [1, 8]: 590 nM
CC50 (in vitro; [9]): 100000 nM
EC50 [2, 10]: 410 nM
EC50 [3, 11]: 860 nM

CN1CCN(c2cccc(Nc3nc4c(-c5ccc(S(C)(=O)=O)cc5)cccn4n3)c2)CC1 [CEP-33779]
EC50 [1, 4]: 360 nM
EC50 [2, 5]: 220 nM
EC50 [3, 6]: 240 nM
CC50 (U937 cells; [7]): 10500 nM

CC#CC(=O)Nc1ccc2ncnc(Nc3cccc(Br)c3)c2c1 [CL-387785 (EKI-785)]
EC50 [1, 4]: 420 nM
EC50 [2, 5]: 410 nM
EC50 [3, 6]: 640 nM
CC50 (U937 cells; [7]): 7090 nM

C=CC(=O)Nc1cccc(Nc2nc(Nc3ccc(Oc4ccnc(C(=O)NC)c4)cc3)ncc2F)c1 [CNX-774]
EC50 [1, 4]: 10 nM
EC50 [2, 5]: 1460 nM
EC50 [3, 6]: 160 nM
CC50 (U937 cells; [7]): 15500 nM

N#CCNC(=O)c1ccc(-c2ccnc(Nc3ccc(N4CCOCC4)cc3)n2)cc1 [CYT387]
EC50 [1, 8]: 300 nM
CC50 (in vitro; [9]): 5400 nM
EC50 [2, 12]: 480 nM
EC50 [3, 13]: 30 nM

CCS(=O)(=O)N1CCN(c2ccc(Nc3ncc(C(N)=O)c(NC4CC4)n3)cc2)CC1 [Cerdulatinib (PRT062070, PRT2070), Cerdulatinib]
EC50 [1, 8]: < 5 nM
CC50 (in vitro; [9]): 3500 nM
EC50 [2, 12]: 50 nM
EC50 [3, 13]: 20 nM

CC[C@@](C)(Nc1ccnc(-c2c[nH]c3ncccc23)n1)C(=O)NCC(F)(F)F [Decernotinib]
IC50 (JAK2): 90 nM
JAK2 activity (JAK2): inhibited
EC50 [1, 8]: 20 nM
IC50 (JAK1): 13 nM
JAK1 activity (JAK1; cell-free kinase assay): inhibited
CC50 (in vitro; [9]): 50000 nM
EC50 [2, 10]: 100 nM
IC50 ([2]; Homo sapiens, U-937, read-out: IC50 IP-10): 100 nM
EC50 [3, 11]: 50 nM

C=CC(=O)Nc1ccc(CN2C(=O)N(c3cc(OC)cc(OC)c3)Cc3cnc(Nc4ccc(N5CCN(C)CC5)cc4)nc32)cc1 [FIIN-2]
EC50 [1, 4]: 30 nM
EC50 [2, 5]: 320 nM
EC50 [3, 6]: 140 nM
CC50 (U937 cells; [7]): 16700 nM

COc1cc(Nc2ncc(F)c(Nc3ccc4c(n3)N(COP(=O)(O)O)C(=O)C(C)(C)O4)n2)cc(OC)c1OC [Fostamatinib (R788), Fostamatinib]
EC50 [1, 8]: 340 nM
CC50 (in vitro; [9]): 40000 nM
EC50 [2, 12]: 500 nM
EC50 [3, 13]: 170 nM

Cc1ccc(C(=O)Nc2ccc(CN3CCN(C)CC3)c(C(F)(F)F)c2)cc1C#Cc1cnc2[nH]ncc2c1 [GZD824]
EC50 [1, 8]: < 5 nM
CC50 (in vitro; [9]): 4800 nM
EC50 [2, 12]: < 5 nM
EC50 [3, 13]: < 5 nM

O=C(c1ccc(Nc2nccc(-c3cc4ccccc4s3)n2)cc1)N1CCC(N2CCCC2)CC1 [IKK-16 (IKK Inhibitor VII)]
EC50 [1, 4]: < 5 nM
EC50 [2, 5]: < 5 nM
EC50 [3, 6]: < 5 nM
CC50 (U937 cells; [7]): 8900 nM

O=C(Nc1cc(C(F)(F)F)cc(C(F)(F)F)c1)c1cc(Cl)ccc1O [IMD 0354]
EC50 [1, 8]: 20 nM
CC50 (in vitro): 1100 nM
EC50 [2, 12]: 80 nM
EC50 [3, 13]: 60 nM

CC(C)n1nc(-c2ccc3oc(N)nc3c2)c2c(N)ncnc21 [INK 128 (MLN0128)]
EC50 [2, 5]: 120 nM
EC50 [3, 6]: 40 nM
CC50 (U937 cells; [7]): 5900 nM

CC(C)(C)Cn1c(N)nc2ccc(-c3[nH]c(C(C)(C)C)nc3-c3ccc(F)cc3)nc21 [LY2228820]
IC50 ([1]; Homo sapiens): 5 nM
EC50 [1, 8]: < 5 nM
IC50 (p38): 60 nM
CC50 (in vitro; [9]): 50000 nM
EC50 [2, 10]: 3700 nM
EC50 [3, 11]: 2230 nM
IC50 ([3]; Homo sapiens): 2200 nM

Cc1cc(Nc2cc(CN3CCOCC3)c3nc(C)c(Cc4ccc(Cl)cc4F)n3n2)n[nH]1 [LY2784544]
EC50 [1, 8]: < 5 nM
CC50 (in vitro; [9]): 26000 nM
EC50 [2, 12]: 10 nM
EC50 [3, 13]: < 5 nM

C[C@@H](Oc1ccc2[nH]nc(/C=C/c3cnn(CCO)c3)c2c1)c1c(Cl)cncc1Cl [LY2874455]
EC50 [1, 8]: < 5 nM
CC50 (in vitro; [9]): 3400 nM
EC50 [2, 12]: < 5 nM
EC50 [3, 13]: < 5 nM

CNS(=O)(=O)C[C@H]1CC[C@H](N(C)c2ncnc3[nH]ccc23)CC1 [Oclacitinib]
EC50 [1, 8]: 50 nM
CC50 (in vitro; [9]): 50000 nM
EC50 [2, 10]: 180 nM
EC50 [3, 11]: 190 nM

NC(=O)c1cnc2[nH]ccc2c1N[C@@H]1[C@@H]2CC3C[C@H]1C[C@@](O)(C3)C2 [Peficitinb (ASP015K, JNJ-54781532), Peficitinb]
EC50 [2, 5]: 20 nM
EC50 [3, 6]: 10 nM
CC50 (U937 cells; [7]): 34700 nM

CCOc1cc2ncc(C#N)c(Nc3ccc(F)c(Cl)c3)c2cc1NC(=O)/C=C/CN(C)C [Pelitinib (EKB-569), Pelitinib]
CC50 (in vitro; [9]): 1700 nM
EC50 [2, 12]: 130 nM
EC50 [3, 13]: 20 nM

C=CC(=O)N1CCC(Oc2cc3c(Nc4ccc(Cl)c(Cl)c4F)ncnc3cc2OC)CC1 [Poziotinib (HM781-36B), Poziotinib]
EC50 [1, 8]: 340 nM
CC50 (in vitro; [9]): 24100 nM
EC50 [2, 12]: 570 nM
EC50 [3, 13]: 660 nM

COc1cc(Nc2ncc(F)c(Nc3ccc4c(n3)NC(=O)C(C)(C)O4)n2)cc(OC)c1OC [R406 (free base)]
EC50 [1, 4]: 2750 nM
EC50 [2, 5]: 700 nM
EC50 [3, 6]: 1130 nM
CC50 (U937 cells; [7]): > 100000 nM

COc1cc(Nc2ncc(F)c(Nc3ccc4c(n3)N(COP(=O)(O)O)C(=O)C(C)(C)O4)n2)cc(OC)c1OC [R788 (Fostamatinib) Disodium]
EC50 [1, 4]: 60 nM
EC50 [2, 5]: 390 nM
EC50 [3, 6]: 160 nM
CC50 (U937 cells; [7]): 7400 nM

CNC(=O)c1cc(Oc2ccc(NC(=O)Nc3ccc(Cl)c(C(F)(F)F)c3)c(F)c2)ccn1 [Regorafenib (BAY 73-4506), Regorafenib]
EC50 [1, 8]: 610 nM
CC50 (in vitro; [9]): 20000 nM
EC50 [2, 12]: 1800 nM
EC50 [3, 13]: 1710 nM

N#CC[C@H](C1CCCC1)n1cc(-c2ncnc3[nH]ccc23)cn1 [Ruxolitinib (INCB018424), Ruxolitinib]
EC50 [1, 14]: 120 nM
CC50 (in vitro; CC50): 100000 nM
EC50 [2, 12]: 70 nM
EC50 [3, 13]: 30 nM

Cc1cc(Nc2ncc3c(n2)N(C)C(=O)N(c2cc(NC(=O)c4cccc(C(F)(F)F)c4)ccc2C)C3)n(C)n1 [SC1]
EC50 [1, 4]: < 5 nM
EC50 [2, 5]: 10 nM
EC50 [3, 6]: 40 nM
CC50 (U937 cells; [7]): > 100000 nM

Cc1c[nH]c2nc(Nc3ccc(N4CCN(C)CC4)c(F)c3)nc(-c3cccc(CC#N)c3)c12 [SGI-7079]
EC50 [1, 4]: < 5 nM
EC50 [2, 5]: < 5 nM
EC50 [3, 6]: < 5 nM
CC50 (U937 cells; [7]): 3850 nM

CCN(CC)CCNC(=O)c1c(C)[nH]c(/C=C2\C(=O)Nc3ccc(F)cc32)c1C [Sunitinib Malate]
EC50 [1, 8]: 50 nM
CC50 (in vitro; [9]): 24900 nM
EC50 [2, 12]: 660 nM
EC50 [3, 13]: 350 nM

Cn1c(=O)c(F)c(Nc2ccc(I)cc2F)c2c(=O)n(C[C@@H](O)CO)cnc21 [TAK-733]
EC50 [1, 14]: < 5 nM
CC50 (in vitro; CC50): 45000 nM
EC50 [2, 12]: 1400 nM
EC50 [3, 13]: 40 nM

NC(=O)Nc1sc(-c2ccc(F)cc2)cc1C(N)=O [TPCA-1]
EC50 [1, 4]: 280 nM
EC50 [2, 5]: 70 nM
EC50 [3, 6]: 120 nM
CC50 (U937 cells; [7]): 11000 nM

C[C@@H]1CCN(C(=O)CC#N)C[C@@H]1N(C)c1ncnc2[nH]ccc12 [Tofacitinib (CP-690550) Citrate]
CC50 (U937 cells; [7]): > 100000 nM

C[C@@H]1CCN(C(=O)CC#N)C[C@@H]1N(C)c1ncnc2[nH]ccc12 [Tofacitinib]
CC50 (in vitro; CC50): > 100000 nM

CC(C)(C)c1cc(C=C(C#N)C#N)cc(C(C)(C)C)c1O [Tyrphostin 9]
EC50 [1, 4]: 40 nM
EC50 [2, 5]: 90 nM
EC50 [3, 6]: 80 nM
CC50 (U937 cells; [7]): 8260 nM

C=CC(=O)Nc1cccc(Oc2nc(Nc3ccc(N4CCN(C)CC4)cc3)ncc2Cl)c1 [WZ3146]
EC50 [1, 4]: 10 nM
EC50 [2, 5]: 680 nM
EC50 [3, 6]: < 5 nM
CC50 (U937 cells): 14000 nM

O=C(Nc1ccc(-c2ccnc(Nc3ccc(N4CCOCC4)cc3)n2)cc1)C1CCCN1 (stereo not drawn) [XL019]
EC50 [1, 8]: 510 nM
CC50 (in vitro; [9]): 26700 nM
EC50 [2, 10]: 990 nM
EC50 [3, 11]: 940 nM

S-Ruxolitinib [S-Ruxolitinib (INCB018424)]
EC50 ([1]; read-out: EC50 IL-8): 30 nM
EC50 ([2]; read-out: EC50 IP-10): 80 nM
EC50 ([3]; read-out: EC50 MCP-1): 60 nM

Reference: PMC11808136, “Screening and identification of host signaling pathways for alleviating influenza-induced production of pro-inflammatory cytokines, IP-10, IL-8, and MCP-1, using a U937 cell-based influenza model” (Frontiers in Microbiology, 2025)
